Laboratory results from paper PMC8298375 (Naunyn-Schmiedeberg's Archives of Pharmacology, 2021).
Read-outs that look alike come from different tables or passages of the source.

Assays:
[1] = system: scopolamine-induced amnesia rats; assay: Morris water maze test, scopolamine-induced amnesia (acute model); format: in vivo, Wistar rats; details: scopolamine 1 mg/kg i.p., Mean ± SEM; for Escape latency: test 15 min after treatment
Method: In the acute model, the rats were trained for Morris water maze (MWM) and passive avoidance test (PAT) tasks in the first 4 days. On the 5th day, 30 min after scopolamine administration, respective treatments were given to all the groups. Fifteen minutes thereafter, the test trials were conducted in MWM and PAT.
A modified Morris water maze test was used (Nampoothiri [2017]). The pool was positioned in the middle of a dimly lit testing room with distant visual clues that could be used by rats for spatial orientation. The maze consisted of a circular water pool (140 × 45 cm) divided into four equally sized quadrants (NE, SE, SW, and NW) by two imaginary diagonal lines running across the center of the pool. The pool was filled with water maintained at a temperature of 23 ± 2 °C. In the NE quadrant (target quadrant) equidistant from the center and edge of the pool, a platform of 25-cm height and 10-cm diameter was invisibly placed submerged 1 cm below the water surface. Rats were gently placed in each quadrant facing the wall and trained to locate the hidden black platform, and the trial was terminated when the rat reached the platform or after 60 s. Accordingly, rats were subjected to one session of four trials per day for four consecutive days. All rats were left on the platform for 30 s and then removed and towel dried. Inter-trial interval was kept a constant 180 s throughout the study. In the probe trial, platform was removed, and rats were allowed to swim for a 60-s trial period. Data was collected in the form of escape latencies to find the platform; percent of time spent over the target quadrant.

[2] = system: AChE; format: in vivo, rat; details: scopolamine model; for % AChE Inhibition: plasma
Method: Samples were then centrifuged at 10,000 rpm for 5 min, and plasma was stored at − 70 °C until analysis.
(§1) Thiocholine, which was produced due to the hydrolysis of acetylthiocholine (ACTI) by AChE, was estimated by making it react with 5, 5′-dithiobis-(2-nitrobenzoic acid) (DTNB). The chemical, 5-thio-2-nitrobenzoic acid (yellow color complex), which was released due to reaction was estimated using a UV spectrophotometer in the range of 400 to 420 nm with maximal absorption at 412 nm. One hundred microliter of blank rat plasma was taken in the polypropylene vials. To this, 2.8 mL of phosphate buffer (0.01 M, pH 8) and 100 µL of DTNB reagents were added and mixed well. Then, 20 µL of ACTI (26.01 mg/mL of Milli-Q water) was added to the contents of the cuvette to initiate the enzyme reaction. The reaction kinetics was monitored at different time intervals (0, 1, 2, 3, 4 min), and absorbance was noted. 2.8 mL buffer (0.01 M, pH 8.0) and 100 µL DTNB reagent served as blank. Concentrations in the range of 0.03–30 mM were prepared using methanol as a diluent. […] Substrate concentration and reaction time were optimized such that sufficient concentration of ACTI is available to bind with the enzyme to initiate the reaction and also it should not saturate the enzyme. In this study, varying concentrations (100–1000 µM) of ACTI were prepared, and reaction kinetics were observed. In general, the maximum time should be either 2–4 min or even less, because the enzyme might undergo degradation. In the present study, up to 4 min of reaction kinetics (changing the optical density or absorbance) was measured. One unit of AChE activity is defined as the number of µmol of acetylthiocholine iodide hydrolyzed per minute. The specific activity of AChE is expressed in moles/min/mg of protein (Kaur et al. [2015]): AChEActivity=(abs.permin×1000×volumeofenzyme)/(13600×TRM)AChEActivity=abovevalue×1000(nanomolar/min/mL)
(§2) where 13,600 = molar extinction coefficient of DTNB: 1000-molar conversion factor: (TRM) total reaction mixture 3 mL: volume of enzyme (0.1 mL).

[3] = system: AChE; format: in vivo, rat; details: colchicine model
Method: as §1, §2

CCN(C)C(=O)Oc1cccc([C@H](C)N(C)C)c1 [INRSM, rivastigmine]
Peripheral swim time ([1]; listed as SCP + INRSM): 34.22 ± 0.74 s | Escape latency ([1]; listed as SCP + INRSM): 3.11 ± 0.36 s | peak AChE inhibition (Emax, maximum inhibition) in plasma [2]: 71.95% | time of peak AChE inhibition in plasma [2]: 10 min | % AChE Inhibition ([2]; 0 min, listed as SCP + INRSM): 0.00 ± 0.0294% | % AChE Inhibition ([2]; 5 min, listed as SCP + INRSM): 64.46 ± 0.1016% | % AChE Inhibition ([2]; 10 min, listed as SCP + INRSM): 71.95 ± 0.0398% | % AChE Inhibition ([2]; 15 min, listed as SCP + INRSM): 71.82 ± 0.0577 a,b,c % | % AChE Inhibition ([2]; 20 min, listed as SCP + INRSM): 62.84 ± 0.0565% | % AChE Inhibition ([2]; 30 min, listed as SCP + INRSM): 63.67 ± 0.0441% | % AChE Inhibition ([2]; 45 min, listed as SCP + INRSM): 59.44 ± 0.0384% | % AChE Inhibition ([2]; 60 min, listed as SCP + INRSM): 57.57 ± 0.0314% | % AChE Inhibition ([2]; 90 min, listed as SCP + INRSM): 56.2 ± 0.317% | % AChE Inhibition ([2]; 120 min, listed as SCP + INRSM): 51.35 ± 0.0329% | % AChE Inhibition ([2]; 180 min, listed as SCP + INRSM): 49.26 ± 0.0264% | peak AChE inhibition in rat plasma [3]: 76.75% | time of peak AChE inhibition in rat plasma [3]: 15 min | % AChE Inhibition in rat plasma ([3]; 0 min, listed as COL + INRSM): 0.00 ± 0.0608% | % AChE Inhibition in rat plasma ([3]; 5 min, listed as COL + INRSM): 75.74 ± 0.0358% | % AChE Inhibition in rat plasma ([3]; 10 min, listed as COL + INRSM): 70.41 ± 0.0540% | % AChE Inhibition in rat plasma ([3]; 20 min, listed as COL + INRSM): 73.66 ± 0.0482% | % AChE Inhibition in rat plasma ([3]; 30 min, listed as COL + INRSM): 67.33 ± 0.0474% | % AChE Inhibition in rat plasma ([3]; 45 min): 64.43 ± 0.0388% | % AChE Inhibition in rat plasma ([3]; 90 min, listed as COL + INRSM): 55.83 ± 0.0401% | % AChE Inhibition in rat plasma ([3]; 120 min, listed as COL + INRSM): 47.15 ± 0.0392% | % AChE Inhibition in rat plasma ([3]; 180 min, listed as COL + INRSM): 41.37 ± 0.0410%

CCN(C)C(=O)Oc1cccc([C@H](C)N(C)C)c1 [ORSM, rivastigmine]
Escape latency ([1]; listed as SCP + ORSM): 3.89 ± 0.44 s | peak AChE inhibition (Emax, maximum inhibition) in plasma [2]: 71.11% | time of peak AChE inhibition in plasma [2]: 60 min | % AChE Inhibition ([2]; 0 min, listed as SCP + ORSM): 0.00 ± 0.0543% | % AChE Inhibition ([2]; 5 min, listed as SCP + ORSM): 26.67 ± 0.1358% | % AChE Inhibition ([2]; 10 min, listed as SCP + ORSM): 49.99 ± 0.1026% | % AChE Inhibition ([2]; 15 min, listed as SCP + ORSM): 62.03 ± 0.0877 a,b % | % AChE Inhibition ([2]; 20 min, listed as SCP + ORSM): 66.09 ± 0.0921% | % AChE Inhibition ([2]; 30 min, listed as SCP + ORSM): 64.89 ± 0.0895% | % AChE Inhibition ([2]; 45 min, listed as SCP + ORSM): 70.42 ± 0.0577% | % AChE Inhibition ([2]; 60 min, listed as SCP + ORSM): 71.11 ± 0.0438% | % AChE Inhibition ([2]; 90 min, listed as SCP + ORSM): 68.18 ± 0.0298% | % AChE Inhibition ([2]; 120 min, listed as SCP + ORSM): 64.36 ± 0.0262% | % AChE Inhibition ([2]; 180 min, listed as SCP + ORSM): 48.89 ± 0.0378% | % AChE Inhibition ([2]; 240 min): 37.05 ± 0.0184% | peak AChE inhibition in rat plasma [3]: 69.56% | time of peak AChE inhibition in rat plasma [3]: 45 min | % AChE Inhibition in rat plasma ([3]; 0 min, listed as COL + ORSM): 0.00 ± 0.0811% | % AChE Inhibition in rat plasma ([3]; 5 min, listed as COL + ORSM): 61.96 ± 0.0469% | % AChE Inhibition in rat plasma ([3]; 10 min, listed as COL + ORSM): 66.76 ± 0.0195% | % AChE Inhibition in rat plasma ([3]; 15 min): 65.00 ± 0.0292% | % AChE Inhibition in rat plasma ([3]; 20 min, listed as COL + ORSM): 66.57 ± 0.0344% | % AChE Inhibition in rat plasma ([3]; 30 min, listed as COL + ORSM): 66.82 ± 0.0101% | % AChE Inhibition in rat plasma ([3]; 60 min, listed as COL + ORSM): 67.53 ± 0.0096% | % AChE Inhibition in rat plasma ([3]; 90 min, listed as COL + ORSM): 61.88 ± 0.0149% | % AChE Inhibition in rat plasma ([3]; 120 min, listed as COL + ORSM): 60.64 ± 0.0186% | % AChE Inhibition in rat plasma ([3]; 180 min, listed as COL + ORSM): 47.43 ± 0.0393%
